# Reference: patent publication US9574176B2 (priority 2012, dated 2017)
# Assays:
# [1] = tested on: muscarinic receptor; assay type: cell-based, mouse
# [2] = tested on: nerve cells differentiated from NVDCC-deficient mouse hippocampus-derived neural stem cells; assay type: cell-based
# [3] = tested on: nicotinic receptor
# [4] = tested on: NVDCC-deficient mouse-derived neural stem cells; assay type: cell-based
molecule,measurement,setting,value
C[C@@H]1O[C@H](C[N+](C)(C)C)C[C@H]1O [muscarine],reaction of differentiated neurons (calcium fluorescence),[1],reacted
"Nc1ccncc1 [4-AP, 4-aminopyridine]",activity potential of the differentiated neurons (spike frequency),[2],significantly increased
CN1CCCC1c1cccnc1 (centres unmarked) [nicotine],reaction of differentiated neurons (calcium fluorescence),[3],reacted
tetradotoxin [TTX],activity potential of the differentiated neurons (spike frequency),[2],suppressed
"CC1=C(/C=C/C(C)=C/C=C/C(C)=C/C(=O)O)C(C)(C)CCC1 [ATRA, all-trans retinoic acid]",differentiation on induction,[4],most cells differentiated into MAP2 (microtubule-associated protein 2)-positive nerve cells
